In US6610675B1 (priority 1980, dated 2003):

Legend:
[1] = tested on: granulation tissue formation caused by implantation of cotton pellets; assay: Granuloma formation test (local cotton pellet granuloma assay); assay type: in vivo, rat; conditions: for ED60: dose causing 60% inhibition of granulation tissue weight
Description: The test compound was dissolved in acetone and aliquots of varying concentrations were injected into cotton pellets. The pellets were dried and then one pellet was implanted beneath the skin of each test rat. Six days later, the animals were sacrificed and the granulation tissue (granuloma) which formed in and around the implanted pellet was removed, dried and weighed. In addition, the thymi and adrenals were removed and weighed.

[2] = tested on: thymus weight in rats; assay: Thymus inhibition testing (subcutaneous administration); assay type: in vivo, rat
Description: Several further studies were undertaken to determine the effects of selected compounds of the invention on thymi weights in rats when the drugs were systemically administered. In each of these studies, male Sprague-Dawley rats were used. […] On the fifth day (48 hours following the last treatment), the animals were sacrificed and the thymi weights were recorded. […] It is evident that the higher the inhibition of thymus activity at a given dose, the more toxic the compound is.

[3] = dose causing 50% inhibition of granulation tissue weight
[4] = rat, in vivo, sc, 0.003 mg/kg/day
[5] = rat, in vivo, sc, 0.01 mg/kg/day
[6] = rat, in vivo, sc, 0.03 mg/kg/day
[7] = rat, in vivo, sc, 0.1 mg/kg/day
[8] = rat, in vivo, sc, 0.3 mg/kg/day
[9] = chloromethyl 11β-hydroxy-17α-isopropoxycarbonyloxyandrost-4-en-3-one-17β-carboxylate = 1
[10] = Table VII, 3 mg/kg/day s.c., three days
[11] = Table VII, 10 mg/kg/day s.c., three days
[12] = Table VII, 30 mg/kg/day s.c., three days
[13] = Table VII, 100 mg/kg/day s.c., three days
[14] = Table X, betamethasone 17-valerate = 1
[15] = Table IX, 1 mg/kg/day s.c., three days
[16] = Table IX, 3 mg/kg/day s.c., three days
[17] = Table IX, 10 mg/kg/day s.c., three days
[18] = Table IX, 30 mg/kg/day s.c., three days

CCC(=O)O[C@]1(C(=O)CCl)[C@@H](C)C[C@H]2[C@@H]3CCC4=CC(=O)C=C[C@]4(C)[C@@]3(F)[C@@H](O)C[C@@]21C [Clobetasol 17-propionate, reference compound]
Body wt. gain ([1]; Table V-a, 1 μg/pellet): 33.0 ± 1.2 g
Granulation tissue Dry wt. ([1]; Table V-a, 1 μg/pellet): 42.0 ± 5.8 mg
Granulation tissue Dry wt. Inhibition ([1]; Table V-a, 1 μg/pellet): 47.6%
Granulation tissue Wet wt. ([1]; Table V-a, 1 μg/pellet): 401 ± 29 mg
Granulation tissue Wet wt. Inhibition ([1]; Table V-a, 1 μg/pellet): 23.6%
Thymus wt. ([1]; Table V-a, 1 μg/pellet): 478 ± 22 mg
Thymus wt. (Decrease %) ([1]; Table V-a, 1 μg/pellet): (3.4) %
Body wt. gain ([1]; Table V-a, 3 μg/pellet): 24.9 ± 1.8 g
Granulation tissue Dry wt. ([1]; Table V-a, 3 μg/pellet): 43.1 ± 8.9 mg
Granulation tissue Dry wt. Inhibition ([1]; Table V-a, 3 μg/pellet): 46.2%
Granulation tissue Wet wt. ([1]; Table V-a, 3 μg/pellet): 402 ± 40 mg
Granulation tissue Wet wt. Inhibition ([1]; Table V-a, 3 μg/pellet): 23.4%
Thymus wt. ([1]; Table V-a, 3 μg/pellet): 449 ± 21 mg
Thymus wt. (Decrease %) ([1]; Table V-a, 3 μg/pellet): (9.3) %
Body wt. gain ([1]; Table V-a, 10 μg/pellet): 25.0 ± 2.1 g
Granulation tissue Dry wt. ([1]; Table V-a, 10 μg/pellet): 37.9 ± 6.8 mg
Granulation tissue Dry wt. Inhibition ([1]; Table V-a, 10 μg/pellet): 52.7%
Granulation tissue Wet wt. ([1]; Table V-a, 10 μg/pellet): 364 ± 25 mg
Granulation tissue Wet wt. Inhibition ([1]; Table V-a, 10 μg/pellet): 30.7%
Thymus wt. ([1]; Table V-a, 10 μg/pellet): 322 ± 22 mg
Thymus wt. (Decrease %) ([1]; Table V-a, 10 μg/pellet): (34.9) %
Body wt. gain ([1]; Table V-a, 30 μg/pellet): 24.8 ± 1.1 g
Granulation tissue Dry wt. ([1]; Table V-a, 30 μg/pellet): 25.5 ± 2.1 mg
Granulation tissue Dry wt. Inhibition ([1]; Table V-a, 30 μg/pellet): 68.2%
Granulation tissue Wet wt. ([1]; Table V-a, 30 μg/pellet): 320 ± 10 mg
Granulation tissue Wet wt. Inhibition ([1]; Table V-a, 30 μg/pellet): 39.0%
Thymus wt. ([1]; Table V-a, 30 μg/pellet): 174 ± 26 mg
Thymus wt. (Decrease %) ([1]; Table V-a, 30 μg/pellet): (64.8) %
Body wt. gain ([1]; Table V-a, 100 μg/pellet): 15.9 ± 1.0 g
Granulation tissue Dry wt. ([1]; Table V-a, 100 μg/pellet): 23.9 ± 3.3 mg
Granulation tissue Dry wt. Inhibition ([1]; Table V-a, 100 μg/pellet): 70.2%
Granulation tissue Wet wt. ([1]; Table V-a, 100 μg/pellet): 325 ± 12 mg
Granulation tissue Wet wt. Inhibition ([1]; Table V-a, 100 μg/pellet): 38.1%
Thymus wt. ([1]; Table V-a, 100 μg/pellet): 84 ± 3 mg
Thymus wt. (Decrease %) ([1]; Table V-a, 100 μg/pellet): (83.0) %
ED50 [1, 3]: >3 μg/pellet
ED60 [1]: >10 μg/pellet
Relative Potency (TED40) ([2]; rat, in vivo): 8.6
Relative Potency (TED50) ([2]; rat, in vivo): 11.2
TED40 ([2]; rat, in vivo, sc): 0.035 mg
TED50 ([2]; rat, in vivo, sc): 0.052 mg
Body weight gain [2, 4]: 18.3 ± 0.6 g
Thymus wt. [2, 4]: 537 ± 28 mg
Thymus wt. Inhibition [2, 4]: 2.4%
Body weight gain [2, 5]: 15.5 ± 1.1 g
Thymus wt. [2, 5]: 498 ± 15 mg
Thymus wt. Inhibition [2, 5]: 9.5%
Body weight gain [2, 6]: 12.3 ± 1.3 g
Thymus wt. [2, 6]: 363 ± 22 mg
Thymus wt. Inhibition [2, 6]: 34.0%
Body weight gain [2, 7]: -0.4 ± 1.3 g
Thymus wt. [2, 7]: 149 ± 9 mg
Thymus wt. Inhibition [2, 7]: 72.9%
Body weight gain [2, 8]: -14.3 ± 1.3 g
Thymus wt. [2, 8]: 63 ± 3 mg
Thymus wt. Inhibition [2, 8]: 88.5%

CC(C)OC(=O)O[C@]1(C(=O)OCCl)CC[C@H]2[C@@H]3CCC4=CC(=O)C=C[C@]4(C)[C@H]3[C@@H](O)C[C@@]21C [chloromethyl 11β-hydroxy-17α-isopropoxycarbonyloxy-androsta-1,4-dien-3-one-17β-carboxylate]
Body wt. gain ([1]; Table IV, 30 μg/pellet): 32.4 ± 1.2 g
Granulation tissue Dry wt. ([1]; Table IV, 30 μg/pellet): 51.0 ± 2.8 mg
Granulation tissue Dry wt. Inhibition ([1]; Table IV, 30 μg/pellet): 37.2%
Granulation tissue Wet wt. ([1]; Table IV, 30 μg/pellet): 432 ± 15 mg
Granulation tissue Wet wt. Inhibition ([1]; Table IV, 30 μg/pellet): 23.7%
Thymus wt. ([1]; Table IV, 30 μg/pellet): 523 ± 26 mg
Body wt. gain ([1]; Table IV, 100 μg/pellet): 35.0 ± 1.5 g
Granulation tissue Dry wt. ([1]; Table IV, 100 μg/pellet): 41.1 ± 5.8 mg
Granulation tissue Dry wt. Inhibition ([1]; Table IV, 100 μg/pellet): 49.4%
Granulation tissue Wet wt. ([1]; Table IV, 100 μg/pellet): 417 ± 27 mg
Granulation tissue Wet wt. Inhibition ([1]; Table IV, 100 μg/pellet): 26.3%
Thymus wt. ([1]; Table IV, 100 μg/pellet): 537 ± 31 mg
Body wt. gain ([1]; Table IV, 300 μg/pellet): 34.4 ± 1.1 g
Granulation tissue Dry wt. ([1]; Table IV, 300 μg/pellet): 38.1 ± 5.9 mg
Granulation tissue Dry wt. Inhibition ([1]; Table IV, 300 μg/pellet): 53.1%
Granulation tissue Wet wt. ([1]; Table IV, 300 μg/pellet): 369 ± 18 mg
Granulation tissue Wet wt. Inhibition ([1]; Table IV, 300 μg/pellet): 34.8%
Thymus wt. ([1]; Table IV, 300 μg/pellet): 525 ± 28 mg
Body wt. gain ([1]; Table IV, 1000 μg/pellet): 29.4 ± 1.5 g
Granulation tissue Dry wt. ([1]; Table IV, 1000 μg/pellet): 18.5 ± 2.4 mg
Granulation tissue Dry wt. Inhibition ([1]; Table IV, 1000 μg/pellet): 77.2%
Granulation tissue Wet wt. ([1]; Table IV, 1000 μg/pellet): 289 ± 12 mg
Granulation tissue Wet wt. Inhibition ([1]; Table IV, 1000 μg/pellet): 48.9%
Thymus wt. ([1]; Table IV, 1000 μg/pellet): 423 ± 26 mg
ED50 ([1]; Table XII, anti-inflammatory effect in cotton pellet granuloma): 119 μg/pellet
Relative potency (ED40) [1, 9]: 6.5
Relative potency (ED60) [1, 9]: 2.3
ED40 ([1]; dose causing 40% inhibition of granulation tissue weight): 47 μg/pellet
ED50 [1, 3]: 119 μg/pellet
ED60 [1]: 301 μg/pellet
Body weight gain [2, 10]: 9.0 ± 0.9 g
Thymus [2, 10]: 377 ± 16 mg
Thymus Inhibition [2, 10]: 20.0%
Body weight gain [2, 11]: 6.2 ± 0.7 g
Thymus [2, 11]: 312 ± 23 mg
Thymus Inhibition [2, 11]: 33.8%
Body weight gain [2, 12]: 4.8 ± 1.4 g
Thymus [2, 12]: 257 ± 24 mg
Thymus Inhibition [2, 12]: 45.4%
Body weight gain [2, 13]: 0.3 ± 1.6 g
Thymus [2, 13]: 161 ± 19 mg
Thymus Inhibition [2, 13]: 65.8%
Relative Potency (TED40) [2, 14]: 0.02
Relative Potency (TED50) [2, 14]: 0.02
TED40 ([2]; Table X, dose required to achieve 40% inhibition of thymi weight, subcutaneous): 16.2 mg
TED50 ([2]; Table X, dose required to achieve 50% inhibition of thymi weight, subcutaneous): 35.3 mg
Relative Potency (TED40) ([2]; Table XII, hydrocortisone 17-butyrate = 1): 1/12
TED40 ([2]; Table XII, thymus inhibition effect, subcutaneously): 16.2 mg/kg

CCCCCOC(=O)O[C@]1(C(=O)OCCl)[C@H](C)C[C@H]2[C@@H]3CCC4=CC(=O)C=C[C@]4(C)[C@@]3(F)[C@@H](O)C[C@@]21C [chloromethyl 9β-fluoro-11β-hydroxy-16α-methyl-17α-pentyloxycarbonyloxyandrosta-1,4-dien-3-one-17β-carboxylate]
Body weight gain [2, 15]: 18.0 ± 1.5 g
Thymus wt. [2, 15]: 387 ± 23 mg
Thymus wt. Decrease [2, 15]: 9.2%
Body weight gain [2, 16]: 15.6 ± 1.3 g
Thymus wt. [2, 16]: 347 ± 15 mg
Thymus wt. Decrease [2, 16]: 18.5%
Body weight gain [2, 17]: 17.4 ± 1.5 g
Thymus wt. [2, 17]: 357 ± 22 mg
Thymus wt. Decrease [2, 17]: 16.2%
Body weight gain [2, 18]: 13.5 ± 1.0 g
Thymus wt. [2, 18]: 335 ± 17 mg
Thymus wt. Decrease [2, 18]: 21.4%
